The text below walks through data of ChEMBL document CHEMBL1201862, “PubChem BioAssay data set” (2004).

Each structure is given as a SMILES string.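 Each compound was tested at five concentrations against cells in 96-well plates for 48 hours. GI50: concentration for 50% inhibition of growth.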 The source made the active and inactive calls. Cut-off read from the data, not from the text of the source: active = GI50 up to about 1.1 µM and inactive = higher.

Common to all, as to experiment: NCI anticancer screen, dose series, 48 h
The subject of experiment [1] is UO-31.
The subject of experiment [2] is U-251.
The subject of experiment [3] is UACC-62.
The subject of experiment [4] is M14.
The subject of experiment [5] is NCI/ADR-RES.
The subject of experiment [6] is HL-60.
Experiment [7] relates to CCRF-CEM.
Experiment [8] deals with OVCAR-4.
Experiment [9] relates to 786-0.
Experiment [10] has as its system SF-268.
The subject of experiment [11] is PC-3.
Experiment [12] concerns K562.
The test system of experiment [13] is HT-29.
In experiment [14] the test system is COLO 205.
The test system of experiment [15] is SK-OV-3.
Experiment [16] relates to EKVX.
Experiment [17] relates to SR.
In experiment [18] the test system is ACHN.
The test system of experiment [19] is OVCAR-8.

With `CC(=O)c1sc2c(c1OC(=O)c1ccccc1)c(=O)n(-c1ccccc1)c(=S)n2-c1ccccc1`, the GI50 in experiment [1] is 4.09 µM (inactive); in experiment [2], 3.94 µM (inactive); in experiment [3] it was 13.4 µM (inactive); in experiment [4] it was 3.4 µM (inactive); in experiment [5], 4.65 µM (inactive); in experiment [6] it was 34 µM (inactive). Also, the GI50 in experiment [7] was 2.51 µM (inactive); in experiment [8] it was 20.4 µM (inactive); in experiment [9], 2.9 µM (inactive); in experiment [10], 4.97 µM (inactive); in experiment [11], 2.9 µM (inactive); in [12], 17.4 µM (inactive). Besides, the GI50 in [13] is 2.93 µM (inactive); in experiment [14], 13.6 µM (inactive); in [15], 4.14 µM (inactive); in experiment [16] it was 15.9 µM (inactive); in experiment [17], 3.95 µM (inactive); in [18], 3.03 µM (inactive). In experiment [19], the GI50 is 4.38 µM (inactive).
Take `O=C(c1cccs1)N(Cc1cccnc1)C(=S)N(Cc1cccnc1)C(=O)c1cccs1`: the GI50 in experiment [1] is > 100 µM (inactive); in [2], 32.7 µM (inactive); in [3] it was 60.7 µM (inactive); in [4], 91.2 µM (inactive); in experiment [5] it was > 100 µM (inactive); in experiment [6], > 100 µM (inactive). Moreover, the GI50 in [7] is > 100 µM (inactive); in [8], > 100 µM (inactive); in [9] it was 3.56 µM (inactive); in experiment [10] it was 35.6 µM (inactive); in [11], 41.8 µM (inactive); in [12] it was 26.4 µM (inactive). In addition, the GI50 in experiment [13] was > 100 µM (inactive); in experiment [14], > 100 µM (inactive); in experiment [15], 37.8 µM (inactive); in [16], 44.1 µM (inactive); in [17], 7.82 µM (inactive); in experiment [18], > 100 µM (inactive). In addition, the GI50 in experiment [19] was 50.4 µM (inactive).
Turning to `COC(=O)C1=NN2c3ccccc3CN([C@@H](C)c3ccccc3)C(=O)[C@@H]2C1`, the GI50 in [1] is 17.5 µM (inactive); in [2], 40.7 µM (inactive); in experiment [3], 19 µM (inactive); in experiment [4] it was 16.5 µM (inactive); in experiment [5], 21 µM (inactive); in experiment [6] it was 23.9 µM (inactive). Further, the GI50 in [7] was 25.7 µM (inactive); in experiment [8] it was 13.3 µM (inactive); in experiment [9], 41.2 µM (inactive); in experiment [10] it was 28.7 µM (inactive); in experiment [11], 31.4 µM (inactive); in experiment [12], 21.8 µM (inactive). In addition, the GI50 in [13] is 44.1 µM (inactive); in [14], 35.6 µM (inactive); in [15] it was > 100 µM (inactive); in [16], 24.6 µM (inactive); in [17], 22 µM (inactive); in [18] it was 34 µM (inactive). Also, the GI50 in experiment [19] is 34.6 µM (inactive).
Take `O=C1CCCSCCCC(=O)CCCSCCC1`: the GI50 in [1], in experiment [2], in experiment [3], in experiment [4], in experiment [5] and in experiment [6] was > 100 µM (inactive) in each case. Besides, the GI50 in experiment [7], in experiment [8], in [9], in experiment [10], in experiment [11] and in experiment [12] was > 100 µM (inactive) in each case. For the same compound, the GI50 in experiment [13], in experiment [14], in [15], in [16], in experiment [17] and in [19] was > 100 µM (inactive) each time.
For `CC(C)CCNC(=O)c1ccc(CNC(=O)/C=C/c2ccc3ccccc3c2)cc1`, the GI50 in experiment [1] is 44.1 µM (inactive); in experiment [2] it was 36 µM (inactive); in experiment [3], > 100 µM (inactive); in [4], 46.3 µM (inactive); in experiment [5], > 100 µM (inactive); in experiment [6] it was > 100 µM (inactive). The GI50 in experiment [7] was > 10 µM (inactive); in experiment [8], 59.3 µM (inactive); in experiment [9] it was > 100 µM (inactive); in experiment [10], > 100 µM (inactive); in experiment [11] it was > 100 µM (inactive); in [12], > 100 µM (inactive). Moreover, the GI50 in experiment [14], in experiment [15], in experiment [16], in experiment [17], in experiment [18] and in experiment [19] was > 100 µM (inactive) each time.
On to `C=C1C(=O)O[C@@H]2C=C(C)C3=CC(=O)[C@](C)(C[C@H](OC(=O)/C(C)=C\C)[C@@H]12)O3`, for which the GI50 in experiment [1] is 1.09 µM (active); in [2], 1.85 µM (inactive); in experiment [3], 0.508 µM (active); in experiment [4] it was 0.644 µM (active); in [5], 0.67 µM (active); in [6], 0.157 µM (active). Further, the GI50 was 0.209 µM (active) in experiment [7]; 4.88 µM (inactive) in experiment [8]; 0.374 µM (active) in experiment [9]; 3.12 µM (inactive) in experiment [10]; 1.51 µM (inactive) in experiment [11]; 0.282 µM (active) in experiment [12]. Further, the GI50 was 0.647 µM (active) in [13]; 0.51 µM (active) in [14]; 4.05 µM (inactive) in experiment [15]; 0.201 µM (active) in experiment [17]; 0.489 µM (active) in [18]; 0.51 µM (active) in experiment [19].
Take `OC(c1ccco1)C(F)(F)c1nc2ccccc2o1` (centres undefined): the GI50 in [1] is 69.2 µM (inactive); in [2], > 100 µM (inactive); in experiment [3], > 100 µM (inactive); in experiment [4] it was 29.5 µM (inactive); in experiment [5] it was > 100 µM (inactive); in [6], > 100 µM (inactive). For the same compound, the GI50 in experiment [7] is > 100 µM (inactive); in experiment [8], > 100 µM (inactive); in experiment [9], > 100 µM (inactive); in experiment [10], > 100 µM (inactive); in experiment [11] it was > 100 µM (inactive); in experiment [12], 69.8 µM (inactive). Further, the GI50 was > 100 µM (inactive) in experiment [13]; > 100 µM (inactive) in experiment [14]; 68.4 µM (inactive) in experiment [15]; > 100 µM (inactive) in [16]; > 100 µM (inactive) in experiment [17]; > 100 µM (inactive) in [18]. Besides, the GI50 in [19] was > 100 µM (inactive).
In the case of `COc1cc(C=C2N=C(c3ccccc3)N(n3c(-c4ccccc4)nc4ccccc4c3=O)C2=O)cc(OC)c1OC`, the GI50 in experiment [1] is 31 µM (inactive); in [2], > 10 µM (inactive); in [3] it was 22.3 µM (inactive); in experiment [4] it was 27.2 µM (inactive); in experiment [5] it was 38.9 µM (inactive); in experiment [6] it was 49.1 µM (inactive). The GI50 is 48.5 µM (inactive) in experiment [7]; 27.4 µM (inactive) in [8]; 21.8 µM (inactive) in [9]; 28.4 µM (inactive) in [10]; 31.1 µM (inactive) in experiment [11]; 45.8 µM (inactive) in experiment [12]. In addition, the GI50 in [13] is 31.8 µM (inactive); in experiment [14], 22 µM (inactive); in experiment [15] it was 35.4 µM (inactive); in experiment [16], 23.8 µM (inactive); in experiment [17], 40.7 µM (inactive); in [18], 28.7 µM (inactive). For the same compound, the GI50 in [19] was 21.1 µM (inactive).
As to `Cn1c2ccc(Cl)cc2c2ccc3c(c21)C(=O)C=CC3=O`, the GI50 in [2] was > 10 µM (inactive); in [3], > 10 µM (inactive); in [4], > 10 µM (inactive); in experiment [5], > 10 µM (inactive); in experiment [6] it was 8.49 µM (inactive); in experiment [7], 3.88 µM (inactive). The GI50 was > 10 µM (inactive) in [8]; > 10 µM (inactive) in experiment [9]; > 10 µM (inactive) in [10]; > 10 µM (inactive) in experiment [11]; 9.14 µM (inactive) in [12]; > 10 µM (inactive) in [13]. The GI50 in experiment [14], in [15], in experiment [16], in experiment [17], in [18] and in [19] was > 10 µM (inactive) each time.
For the compound `CSc1nc(=S)[nH]c2[nH]nc(C)c12`, the GI50 in experiment [1], in [2], in experiment [3], in experiment [4], in experiment [5] and in experiment [6] was > 100 µM (inactive) throughout. The GI50 in experiment [7], in experiment [8], in experiment [9], in experiment [10], in [11] and in [12] was > 100 µM (inactive) throughout. The GI50 was > 100 µM (inactive) in experiment [13]; > 100 µM (inactive) in [14]; > 100 µM (inactive) in experiment [15]; > 100 µM (inactive) in experiment [16]; 94.4 µM (inactive) in experiment [17]; > 100 µM (inactive) in experiment [19].
As for `Cc1cc(OCc2nc(N)nc(N)c2-c2ccc(Cl)c(Cl)c2)ccc1[N+](=O)[O-]`, the GI50 in [1] is 0.791 µM (active); in experiment [2] it was 0.0889 µM (active); in experiment [3] it was 0.0585 µM (active); in experiment [4], 0.104 µM (active); in [5], 0.404 µM (active); in experiment [6], 0.356 µM (active). Also, the GI50 in experiment [7] was 0.0235 µM (active); in experiment [8], 2.19 µM (inactive); in experiment [9], 0.104 µM (active); in [10], 0.771 µM (active); in experiment [11], 0.467 µM (active); in experiment [12], 0.0255 µM (active). The GI50 is 0.0927 µM (active) in [13]; 0.705 µM (active) in experiment [14]; 3.01 µM (inactive) in experiment [15]; 0.953 µM (active) in [16]; 0.0237 µM (active) in [17]; 0.0746 µM (active) in experiment [18]. The GI50 in experiment [19] is 0.556 µM (active).
